Measurements from US20080200422A1, “Methods for reduction of adipose tissue mass” (priority 2007, published 2008).
Entries after “also recorded” stand apart in the source; their conditions may differ.

Columns and labels:
[1] = tested on: leucine-deprived GCN2−/− mice; assay: C75 treatment of leucine-deprived GCN2−/− mice (liver steatosis, liver gene expression); assay type: in vivo; details: 20 mg/kg IP, three doses over seven days
Procedure: FIG. 5. Leucine deprivation induced-liver steatosis in GCN2^−/− mice is prevented by inhibition of FAS expression. GCN2 KO (−/−) mice were fed a leucine-deprived diets for seven days and were given C75 at a dose of 20 mg/Kg body weight in 200 μl RPMI or only RPMI every other day by IP injection during this period. A. Liver histology for GCN2 KO mice. Sections from animals were stained with oil red O, magnification 40×. Lipid deposits are detected as red-stained areas. B and C. Expression of FAS mRNA (B) and FAS protein (C, top: western blot; bottom: FAS protein relative to tubulin and normalized to control diet group within same strains of mice). *Effect of with C75 treatment fed on (−) leu diet versus without C75 treatment fed on (−) leu diet or control diet in GCN2 KO mice (two-tailed student t-test; p<0.0001.). [KO: control diet (n=6); (−) leu diet (n=5); (−) leu diet+C75 (n=3)]. D and E. Expression of PPARα and ACO mRNA. *Effect of with C75 treatment versus without C75 treatment on either (−) leu diet (*a: p<0.001) or control diet group (*b: p<0.001) in GCN2 KO mice (two-tailed student t-test; p<0.0001.). [KO: control diet (n=6); (−) leu diet (n=5); (−) leu diet+C75 (n=3)].
Wild-type C57BL/6J (GCN2^+/+) mice were obtained from Jackson Laboratories (Bar Harbor, Me.). […] Food intake and body weight were recorded daily. […] Body, liver and adipose tissue weight were recorded at the time of sacrifice. […]
Total RNA was prepared from frozen liver using an RNase mini kit (Qiagen). Quantitative RT-PCR was performed using co-amplification of GAPDH as an internal control. 1 μg of RNA was reverse transcribed with random primers (Promega) and then quantitative PCR was performed with the qPCR core kit for sybergreen I (Eurogentec) by 7000 sequence detection system (Applied Biosystems). […] At a specific threshold in the linear amplification stage, the cycle differences between amplified GAPDH and cDNA of interest were used to determine the relative quantity of genes of interest. […]

[2] = tested on: liver FAS expression; details: 24 hrs after a single IP injection (30 mg/kg body weight); cited from earlier work
[3] = tested on: GCN2−/− mice; assay: PPARα agonist WY compound in leucine-deprived GCN2−/− mice (fatty liver); assay type: in vivo

SMILES | FAS mRNA and protein levels in liver [1] | levels of PPARα and ACO mRNA in liver [1] | liver steatosis [1] | liver FAS expression [2] | development of fatty liver [3]
C=C1C(=O)OC(CCCCCCCC)C1C(=O)O (centres unmarked) [C75] | repressed | reduced | prevented | inhibit FAS expression significantly; also recorded: significant reductions | –
Cc1cccc(Nc2cc(Cl)nc(SCC(=O)O)n2)c1C [WY compound] | – | – | – | – | not able to prevent
